How the values were obtained:
Assay type in all cases: cell-based
HeLa cells = assay: Caspase-3/7 assay (Caspase-Glo 3/7); details: INI-43 pre-treatment plus cisplatin, 48 h
Experimental: (§1) Cells were subjected to single or CT for 48 h, and caspase-3/7 activity monitored using the Promega Caspase-Glo^R 3/7 assay, according to the manufacturer's instructions. Luminescence was measured using the Veritas™ microplate luminometer (Promega) and results standardized to viable cells in each treatment as determined by MTT assays performed in parallel.

SiHa cells [1] = assay: Caspase-3/7 assay (Caspase-Glo 3/7); details: INI-43 pre-treatment plus cisplatin, 48 h
Experimental: as §1

WHC05 = assay: Combination index (CI) determination, Chou-Talalay method; details: WHC05 oesophageal cancer cell line
Experimental: (§2) To elucidate the nature of the combined use of INI-43 and cisplatin, the Chou-Talalay method was adopted (Chou T C, Talalay P. Quantitative analysis of dose-effect relationships: the combined effects of multiple drugs or enzyme inhibitors. Adv Enzym Regul. 1984; 22:27-55). Cell viability was determined after 48-h treatment at fixed INI-43 to cisplatin ratios of 1:3, 1:4 and 1:5 (Table 1 below). Cell viability was converted to fraction affected (Fa) and CI calculated using CompuSyn software (ComboSyn, Inc.).

HeLa = assay: as above; details: HeLa cervical cancer cell line
Experimental: as §2

Mel 80 = assay: as above; details: Mel 80 cervical cancer cell line
Experimental: as §2

Kyse 30 = assay: as above; details: Kyse 30 oesophageal cancer cell line
Experimental: as §2

SiHa cells [2] = assay: as above; details: INI-43 to cisplatin ratios 1:3, 1:4 and 1:5, at Fa>0.2, 2 h pre-incubation, 48 h
Experimental: as §2

[3] = tested on: p53, p21 and Mcl-1 in SiHa cells; assay: Western blot of p53 and p53 targets
Experimental: For protein extraction, cells were washed with PBS and lysed using RIPA buffer (50 mM Tris-CI, pH 7.4, 150 mM NaCl, 1% (w/v) sodium deoxycholate, 0.1% (v/v) SDS, 1% (v/v) Triton X-100, 2 mM EGTA, 2 mM EDTA, 50 mM NaF, 5 mM Na2P2O7, 1× complete protease inhibitor cocktail (Roche) and 0.1 M Sodium Orthovanadate). For PARP cleavage analysis, dead cells were collected by centrifugation and combined with live cell lysates. Lysates were sonicated, centrifuged, and the supernatant quantified using the BCA Protein Assay Kit (Pierce, Thermo Scientific) according to the manufacturer's instructions. Proteins were subjected to Western blot analysis using the following antibodies: rabbit anti-Kpnβ1 (H-300, sc-11,367, Santa Cruz), rabbit anti-β-tubulin (H-235, sc-9104, Santa Cruz), rabbit anti-PARP1/2 antibody (H-250, sc-7150, Santa Cruz), mouse anti-GAPDH (0411, sc-47,724, Santa Cruz), rabbit anti-p21 (H-164, sc-756, Santa Cruz), rabbit anti-Mcl-1 (H-260, sc-20,679, Santa Cruz), mouse anti-cyclin D1 (HD11, sc-246, Santa Cruz), rabbit anti-c-Myc (N-262, sc-764, Santa Cruz), mouse anti-p53 (DO-7, M7001, DakoCytomation), mouse anti-XIAP (610,763, BD Biosciences), and rabbit anti-phospho-Histone H2AX (γH2AX, Ser139, 20E3, #9718, Cell Signal).

[4] = tested on: NFκB-p50 and NFκB-p65 in SiHa cells; assay: Nuclear/cytoplasmic fractionation and Western blot; details: INI-43-cisplatin CT vs cisplatin
Experimental: For protein extraction, cells were washed with PBS and lysed using RIPA buffer (50 mM Tris-CI, pH 7.4, 150 mM NaCl, 1% (w/v) sodium deoxycholate, 0.1% (v/v) SDS, 1% (v/v) Triton X-100, 2 mM EGTA, 2 mM EDTA, 50 mM NaF, 5 mM Na2P2O7, 1× complete protease inhibitor cocktail (Roche) and 0.1 M Sodium Orthovanadate). For PARP cleavage analysis, dead cells were collected by centrifugation and combined with live cell lysates. Lysates were sonicated, centrifuged, and the supernatant quantified using the BCA Protein Assay Kit (Pierce, Thermo Scientific) according to the manufacturer's instructions. […]
For nuclear/cytoplasmic protein extraction, cells were collected by trypsinization. […] The fractions were quantified using the BCA Protein Assay Kit (Pierce, Thermo Scientific) according to the manufacturer's instructions, followed by western blot analysis.

[5] = tested on: p53 reporter activity in SiHa cells; assay: p53-luciferase reporter assay
Experimental: SiHa cells were transfected with 100 ng p65-luciferase reporter construct (containing five copies of the p65-binding site, Promega) or 200 ng p53-luciferase reporter construct (containing thirteen wildtype p53 binding sites, Addgene plasmid #16442, Addgene Plasmid Repository (el-Deiry W S, Tokino T, Velculescu V E, Levy D B, Parsons R, Trent J M, et al. WAF1, a potential mediator of p53 tumor suppression. Cell. 1993; 75(4):817-25) and 10 ng pRL-TK (encoding Renilla luciferase, Promega), using Genecellin transfection reagent (Celtic Molecular Diagnostics). The following day cells were treated with 5 μM INI-43 for 2 h, followed by 30 μM cisplatin for 24 h, and luciferase activity assayed using the Dual-Luciferase Report assay system (Promega), according to the manufacturer's instructions. Luciferase readings were measured using the Veritas™ microplate luminometer (Promega) and normalised to Renilla luciferase from the same extract.

[6] = tested on: NFκB-p50 and NFκB-p65 in SiHa cells; assay: Immunofluorescence of NFκB nuclear localization
Experimental: SiHa cells were plated on glass coverslips and treated for 24 h before fixation with 4% paraformaldehyde. Cells were permeabilised using 0.5% Triton-X-100/PBS and blocked using 1% BSA/PBST with 0.3 M Glycine. Primary antibody incubations were performed in 1% BSA/PBST, followed by secondary antibody incubation (Cy3 conjugated goat anti-rabbit, Jackson ImmunoResearch). Cell nuclei were counterstained with 0.5 μg/mL DAPI, and images captured using the Zeiss inverted fluorescence microscope under 100× oil immersion.

Compound: CN(C)CCCn1c(N)c(-c2nc3ccccc3[nH]2)c2nc3ccccc3nc21 [INI-43]
- increase in caspase-3/7 activation, combination vs cisplatin only (HeLa cells): 3.6 fold
- increase in caspase-3/7 activation, combination vs cisplatin only (SiHa cells [1]): 2.8 fold
- nature of INI-43 and cisplatin combination (CI) (WHC05): synergism
- nature of INI-43 and cisplatin combination (CI) (HeLa): synergism
- nature of INI-43 and cisplatin combination (CI) (Mel 80): synergism
- nature of INI-43 and cisplatin combination (CI) (Kyse 30): synergism
- combination index (CI) values (SiHa cells [2]): below 1
- Mcl-1 levels, INI-43 and cisplatin vs single cisplatin ([3]; 60 μM cisplatin): reduced
- p21 levels, INI-43 and cisplatin vs single cisplatin ([3]; 30 and 60 μM cisplatin): elevated
- p53 protein levels ([3]; SiHa, treatment with INI-43 and cisplatin): increased
- levels of NFκB-p50 and NFκB-p65 in the nucleus [4]: reduced this effect
- p53 reporter activity ([5]; 5 μM INI-43 alone, 24 h): small but significant increase
- p53 reporter activity ([5]; INI-43 pre-treatment plus cisplatin vs cisplatin alone): significantly increased
- nuclear fluorescence relative to cytoplasmic fluorescence (Fc (Nu/Cy)) ([6]; INI-43-cisplatin CT vs cisplatin): significantly reduced this effect
- cisplatin-induced nuclear translocation of NFκB-p50 and NFκB-p65 ([6]; INI-43 pre-treatment plus cisplatin): prevented this nuclear translocation
